Experimental data taken from US20260305610A1, “TRIAZOLE COMPOUND, AND PREPARATION METHOD THEREFOR, HERBICIDAL COMPOSITION AND USE THEREOF” (QINGDAO KINGAGROOT CHEMICAL COMPOUND CO., LTD., priority 2023, published 2026).

Tested on: weeds
Assay: Activity assay of compositions: soil sealing treatment (S), fresh weight inhibition and combined effect (Gowing method)
Type: in vivo
Details: 21 d
Description: The required active ingredient B was purchased from a reagent company or a technical material manufacturer or synthesized by a conventional method. The technical materials were all dissolved with acetone solvents and diluted with aqueous solution of 0.1% Tween-80 emulsifier, which should be used immediately after dilution.
• Weeds were cultivated in a controllable sunlight greenhouse at 20 to 30° C., in natural light, and with relative humidity of 57% to 72%. […] The test soil was quantitatively filled to ¾ of the pot, and then watered from the bottom of the pot to completely wet the soil to saturation. The test weed seeds were accelerated to just germinate, and then evenly and quantitatively broadcasted on the soil surface, covered with 0.5-1 cm soil according to the sizes of the seeds, and ready for use 72 hours after sowing.
Each treatment was repeated 4 times. Four pots with 20 weed seeds sowed per pot were treated each time.
The well-sowed test materials were evenly placed on a platform with an area of 0.5 m^2, and foliage spraying was carried out by the 3WP-2000-type walking spray tower at a dosage of 450 kg/ha and a spray pressure of 0.3 MPa. After all the solution was sprayed, the air valve was closed. And 30 seconds later, the door of the spray tower was opened, and the nutritional bowl was taken out. Next, the air valve was opened, and the spray tube was cleaned by spraying 50 ml of water.
A method for investigating absolute numbers was employed. Whole seedlings of survival weeds were cut off along the soil surface with a blade, and the fresh weight of the weeds was weighed using an analytical balance. For dead weeds, the fresh weight thereof was zero.
The investigation was performed 21 days after the treatment for once in total.
The theoretical fresh weight inhibition rate of a mixed combination of each treatment was calculated by the Gowing method (E0=X+Y−X*Y/100). Then compared with the measured inhibition rate (E), the type of the combined effect of the combination of the two on weeds was evaluated, which was a synergistic effect when E−E0>10%; an antagonistic effect when E−E0<−10%; an additional effect when −10%≤E−E0≤10%. An optimal ratio was determined according to factors such as the actual control effects, characteristics of herbicides, balance of the formulation, etc. In the formula, X represents the fresh weight inhibition rate of the active ingredient A in a dosage of P; Y represents the fresh weight inhibition rate of the active ingredient B in a dosage of Q. The statistical results are shown in Table 4.

[1] = Amaranthus retroflexus, B 15 g a.i./ha
[2] = Amaranthus retroflexus, B 30 g a.i./ha
[3] = Lolium multiflorum, B 30 g a.i./ha
[4] = Lolium multiflorum, B 60 g a.i./ha
[5] = Commelina communis, B 15 g a.i./ha
[6] = Commelina communis, B 30 g a.i./ha
[7] = Eclipta prostrata, B 150 g a.i./ha
[8] = Eclipta prostrata, B 300 g a.i./ha
[9] = Eclipta prostrata, B 15 g a.i./ha
[10] = Eclipta prostrata, B 30 g a.i./ha
[11] = Eleocharis yokoscensis, B 150 g a.i./ha
[12] = Eleocharis yokoscensis, B 300 g a.i./ha
[13] = Eclipta prostrata, B 7.5 g a.i./ha
[14] = Eclipta prostrata, B 75 g a.i./ha

## CCn1ncc(C(=O)c2ccc(S(C)(=O)=O)c(COCC(F)(F)F)c2Cl)c1OC(=O)c1cn(C)nc1C [Fenpyrazone]
[1]
  Control effect of B applied alone in a corresponding dose (%): 13.5%
[2]
  Control effect of B applied alone in a corresponding dose (%): 33.7%

## CCN(C(=O)n1nnn(-c2ccccc2Cl)c1=O)C1CCCCC1 [Fentrazamide]
Eclipta prostrata, B 22.5 g a.i./ha
  Control effect of B applied alone in a corresponding dose (%): 35.1%
Eclipta prostrata, B 45 g a.i./ha
  Control effect of B applied alone in a corresponding dose (%): 48.9%

## CC(C)N(C(=O)COc1nnc(C(F)(F)F)s1)c1ccc(F)cc1 [Flufenacet]
[3]
  Control effect of B applied alone in a corresponding dose (%): 46.2%
[4]
  Control effect of B applied alone in a corresponding dose (%): 68.5%

## C#CCN1C(=O)COc2cc(F)c(N3C(=O)C4=C(CCCC4)C3=O)cc21 [Flumioxazin]
[5]
  Control effect of B applied alone in a corresponding dose (%): 35.0%
[6]
  Control effect of B applied alone in a corresponding dose (%): 50.6%

## CC(C)c1ccc(NC(=O)N(C)C)cc1 [Isoproturon]
Lolium temulentum, B 375 g a.i./ha
  Control effect of B applied alone in a corresponding dose (%): 37.1%
Lolium temulentum, B 750 g a.i./ha
  Control effect of B applied alone in a corresponding dose (%): 58.2%

## CS(=O)(=O)c1cc(C(F)(F)F)ccc1C(=O)c1cnoc1C1CC1 [Isoxaflutole]
[1]
  Control effect of B applied alone in a corresponding dose (%): 36.7%
[2]
  Control effect of B applied alone in a corresponding dose (%): 50.3%

## CN(C(=O)COc1nc2ccccc2s1)c1ccccc1 [Mefenacet]
[7]
  Control effect of B applied alone in a corresponding dose (%): 40.6%
[8]
  Control effect of B applied alone in a corresponding dose (%): 69.7%

## COc1cc(OC)nc(NC(=O)NS(=O)(=O)c2c(C3=NOCC(C)O3)c(Cl)nn2C)n1 (stereo not shown) [Metazosulfuron]
[9]
  Control effect of B applied alone in a corresponding dose (%): 51.6%
[10]
  Control effect of B applied alone in a corresponding dose (%): 69.2%

## CSc1nnc(C(C)(C)C)c(=O)n1N [Metribuzin]
[11]
  Control effect of B applied alone in a corresponding dose (%): 40.6%
[12]
  Control effect of B applied alone in a corresponding dose (%): 58.3%

## CCN(CC)C(=O)C(C)Oc1cccc2ccccc12 (stereo not shown) [Napropamide]
Descurainia sophia, B 150 g a.i./ha
  Control effect of B applied alone in a corresponding dose (%): 38.6%
Descurainia sophia, B 300 g a.i./ha
  Control effect of B applied alone in a corresponding dose (%): 55.7%

## CC(C)(C)c1nn(-c2cc(OCC#N)c(Cl)cc2Cl)c(=O)o1 [Oxadiargyl]
Solanum nigrum, B 45 g a.i./ha
  Control effect of B applied alone in a corresponding dose (%): 51.2%
Solanum nigrum, B 90 g a.i./ha
  Control effect of B applied alone in a corresponding dose (%): 64.7%

## CC(C)Oc1cc(-n2nc(C(C)(C)C)oc2=O)c(Cl)cc1Cl [Oxadiazon]
Solanum nigrum, B 30 g a.i./ha
  Control effect of B applied alone in a corresponding dose (%): 45.8%
Solanum nigrum, B 60 g a.i./ha
  Control effect of B applied alone in a corresponding dose (%): 53.5%

## CC1=C(c2ccccc2)C(=O)N(C(C)(C)c2cc(Cl)cc(Cl)c2)CO1 [Oxaziclomefone]
[13]
  Control effect of B applied alone in a corresponding dose (%): 38.9%
[9]
  Control effect of B applied alone in a corresponding dose (%): 56.8%

## CCC(CC)Nc1c([N+](=O)[O-])cc(C)c(C)c1[N+](=O)[O-] [Pendimethalin]
[7]
  Control effect of B applied alone in a corresponding dose (%): 45.5%
[8]
  Control effect of B applied alone in a corresponding dose (%): 63.2%

## CC(C)=C1OC(=O)N(c2cc(OC3CCCC3)c(Cl)cc2F)C1=O [Pentoxazone]
[10]
  Control effect of B applied alone in a corresponding dose (%): 40.5%
Eclipta prostrata, B 60 g a.i./ha
  Control effect of B applied alone in a corresponding dose (%): 61.4%

## CCCOCCN(C(=O)CCl)c1c(CC)cccc1CC [Pretilachlor]
[14]
  Control effect of B applied alone in a corresponding dose (%): 38.4%
[7]
  Control effect of B applied alone in a corresponding dose (%): 68.3%

## CSc1nc(NC(C)C)nc(NC(C)C)n1 [Prometryn]
[11]
  Control effect of B applied alone in a corresponding dose (%): 42.1%
[12]
  Control effect of B applied alone in a corresponding dose (%): 56.9%

## CCCc1ccc2nc(Cl)c(S(=O)(=O)NC(=O)Nc3nc(OC)cc(OC)n3)n2n1 [Propyrisulfuron]
[13]
  Control effect of B applied alone in a corresponding dose (%): 42.8%
[9]
  Control effect of B applied alone in a corresponding dose (%): 63.0%

## CCCN(CCC)C(=O)SCc1ccccc1 [Prosulfocarb]
Lolium multiflorum, B 300 g a.i./ha
  Control effect of B applied alone in a corresponding dose (%): 46.5%
Lolium multiflorum, B 600 g a.i./ha
  Control effect of B applied alone in a corresponding dose (%): 64.2%

## C#CCN(C)c1c(C#N)cnn1-c1nn2c(c1Cl)CCCC2 [Pyraclonil]
Eclipta prostrata, B 37.5 g a.i./ha
  Control effect of B applied alone in a corresponding dose (%): 47.0%
[14]
  Control effect of B applied alone in a corresponding dose (%): 65.8%

## COCc1cccc(C(O)c2nc(OC)cc(OC)n2)c1NS(=O)(=O)C(F)F (stereo not shown) [Pyrimisulfan]
[13]
  Control effect of B applied alone in a corresponding dose (%): 54.4%
[9]
  Control effect of B applied alone in a corresponding dose (%): 73.7%

## Cn1nc(C(F)(F)F)c(CS(=O)(=O)C2=NOC(C)(C)C2)c1OC(F)F [Pyroxasulfone]
[3]
  Control effect of B applied alone in a corresponding dose (%): 40.6%
[4]
  Control effect of B applied alone in a corresponding dose (%): 62.7%

## CCc1cccc(C)c1N(C(=O)CCl)[C@@H](C)COC [S-metolachlor]
Amaranthus retroflexus, B 150 g a.i./ha
  Control effect of B applied alone in a corresponding dose (%): 41.4%
Amaranthus retroflexus, B 300 g a.i./ha
  Control effect of B applied alone in a corresponding dose (%): 64.6%

## CC(C)N(C)S(=O)(=O)NC(=O)c1cc(-n2c(=O)cc(C(F)(F)F)n(C)c2=O)c(F)cc1Cl [Saflufenacil]
[13]
  Control effect of B applied alone in a corresponding dose (%): 50.8%
[9]
  Control effect of B applied alone in a corresponding dose (%): 69.6%

## Cc1nn(-c2cc(NS(C)(=O)=O)c(Cl)cc2Cl)c(=O)n1C(F)F [Sulfentrazone]
Solanum nigrum, B 15 g a.i./ha
  Control effect of B applied alone in a corresponding dose (%): 48.5%
Solanum nigrum, B 30 g a.i./ha
  Control effect of B applied alone in a corresponding dose (%): 60.0%

## CS(=O)(=O)c1ccc(C(=O)C2C(=O)CCCC2=O)c(Cl)c1COCC1CCCO1 (stereo not shown) [Tefuryltrione]
Ammannia arenaria, B 7.5 g a.i./ha
  Control effect of B applied alone in a corresponding dose (%): 32.9%
Ammannia arenaria, B 15 g a.i./ha
  Control effect of B applied alone in a corresponding dose (%): 55.2%

## CCNc1nc(Cl)nc(NC(C)(C)C)n1 [Terbuthylazine]
Chloris virgata, B 225 g a.i./ha
  Control effect of B applied alone in a corresponding dose (%): 35.5%
Chloris virgata, B 450 g a.i./ha
  Control effect of B applied alone in a corresponding dose (%): 52.7%

## CN1C[C@H](c2cccc(C(F)(F)F)c2)[C@@H](C(=O)Nc2ccccc2F)C1=O [Tetflupyrolimet]
Monochoria vaginalis, B 7.5 g a.i./ha
  Control effect of B applied alone in a corresponding dose (%): 43.9%
Monochoria vaginalis, B 15 g a.i./ha
  Control effect of B applied alone in a corresponding dose (%): 68.1%

## COC(=O)c1csc(C)c1S(=O)(=O)NC(=O)n1nc(OC)n(C)c1=O [Thiencarbazone-methyl]
[5]
  Control effect of B applied alone in a corresponding dose (%): 45.4%
[6]
  Control effect of B applied alone in a corresponding dose (%): 56.0%

## COC(=O)c1sccc1S(=O)(=O)NC(=O)Nc1nc(C)nc(OC)n1 [Thifensulfuron-methyl]
Silene conoidea, B 30 g a.i./ha
  Control effect of B applied alone in a corresponding dose (%): 47.5%
Silene conoidea, B 60 g a.i./ha
  Control effect of B applied alone in a corresponding dose (%): 62.1%

## COC(=O)CCNC(=O)C(C)Sc1cc(-n2c(=O)cc(C(F)(F)F)n(C)c2=O)c(F)cc1Cl (stereo not shown) [Tiafenacil]
[6]
  Control effect of B applied alone in a corresponding dose (%): 48.2%
Commelina communis, B 60 g a.i./ha
  Control effect of B applied alone in a corresponding dose (%): 61.4%

## COc1nc(OC)nc(C(=O)c2cccc(F)c2N(C)S(=O)(=O)C(F)F)n1 [Triafamone]
[13]
  Control effect of B applied alone in a corresponding dose (%): 41.1%
[9]
  Control effect of B applied alone in a corresponding dose (%): 68.2%
